{"source": "patent US20140294854A1", "about": "“TARGET DIRECTED TO ADIPOCYTES, METHODS AND ASSAYS FOR TREATMENT OF OBESITY” (priority 2011, published 2014)", "key": {"HSL": {"biological_target": "T1, HSL (Mus musculus, UniProt P54310)", "T1 construct": "freshly dissected adipose tissue explants from BALB/c or B6 ob/ob inguinal fat pad; from tissue; host or cells: inguinal fat pad (white adipose tissue) explants of BALB/c and C57BL/6J ob/ob (Agrp-/-) mice", "T1 sequence (P54310 1-759)": "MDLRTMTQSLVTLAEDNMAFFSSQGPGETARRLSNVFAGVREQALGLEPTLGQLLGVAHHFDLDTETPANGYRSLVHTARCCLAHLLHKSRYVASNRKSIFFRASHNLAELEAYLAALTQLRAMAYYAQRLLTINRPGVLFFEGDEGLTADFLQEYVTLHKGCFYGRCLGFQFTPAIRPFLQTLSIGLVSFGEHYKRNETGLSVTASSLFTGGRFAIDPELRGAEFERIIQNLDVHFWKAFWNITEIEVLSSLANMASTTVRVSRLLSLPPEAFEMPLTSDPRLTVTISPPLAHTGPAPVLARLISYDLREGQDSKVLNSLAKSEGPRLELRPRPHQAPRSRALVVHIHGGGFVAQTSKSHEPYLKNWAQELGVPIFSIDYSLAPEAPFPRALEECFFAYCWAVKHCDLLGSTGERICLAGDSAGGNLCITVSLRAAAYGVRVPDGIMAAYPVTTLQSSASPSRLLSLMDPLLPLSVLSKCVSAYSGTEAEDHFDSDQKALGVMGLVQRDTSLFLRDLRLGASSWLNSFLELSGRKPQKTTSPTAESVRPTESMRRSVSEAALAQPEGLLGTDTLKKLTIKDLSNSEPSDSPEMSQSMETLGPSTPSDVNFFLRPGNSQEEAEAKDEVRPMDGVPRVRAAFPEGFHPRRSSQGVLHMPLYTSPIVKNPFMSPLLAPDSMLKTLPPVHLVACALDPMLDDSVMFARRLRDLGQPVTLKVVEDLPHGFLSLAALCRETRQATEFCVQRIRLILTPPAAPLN", "assay": "Free fatty acid release (lipolysis) from adipose tissue explants with the HSL inhibitor", "assay_type": "cell-based", "description": "Free fatty acids (FFA) release from adipose tissue explants was further measured in presence or not of the HSL inhibitor CAY 10499. […] FFA release was compared from freshly dissected adipose tissue explants from BALB/c or B6 ob/ob inguinal fat pad. It was observed that FFA production was increased in explants from BALB/c relative to B6 ob/ob mice when HSL activity is inhibited by CAY10499. The same difference between BALB and B6 lipolysis (Δ^−CAY=[…] versus Δ^+CAY=397.1±8.1, P=0.31) without the HSL inhibitor (i.e. HSL+ATGL activity) or with CAY10499 (i.e. ATGL activity), respectively. […] Of note, the increased ATGL activity is greater than the increase in ATGL protein content in adipose tissue. This may be due to the concomitant increase of CGI-58 expression that is known to enhance ATGL lipolytic activity."}, "ATGL": {"tested_on": "ATGL", "assay": "ATGL degradation in WAT fat fragments, anti-ATGL immunoblot", "assay_type": "cell-based, mouse", "settings": "for ATGL concentrations on co-treatment with cycloheximide: B6 ob/ob fat co-treated with cycloheximide and the inhibitor", "experimental": "FIGS. 5A-5C. Regulation of ATGL expression through degradation pathways. (5A) ATGL mRNA level in WAT was determined by RT-qPCR (n=6). (5B) WAT fragments of BALB/c and B6 ob/ob mice were incubated for 5 hours with cycloheximide (CHX) and WAT protein lysates were immunoblotted using anti-ATGL to follow degradation rates of ATGL. (5C) B6 ob/ob WAT fragments were treated with MG132 (MG, proteasome inhibitor) and chloroquine (CQ, lysosome inhibitor). Protein extracts were analyzed by Western blot. Densitometry analysis was performed (5B,5C) and data are expressed as average ±SEM (n=6). Unpaired t-tests were performed, *P<0.05.\nThus, BALB/c ob/ob fat has long lived ATGL whereas C57BL/6 ob/ob fat has ATGL that is degraded within several hours. […] Thus, ATGL appears to be degraded by both the lysosomal and proteasomal pathways."}}, "note": "Residues, ends and D or L forms follow the SMILES beside them. *: point of attachment. Cbz = O=C(OCc1ccccc1)*"}
{"smiles": "COc1nn(-c2ccc(NC(=O)OCc3ccccc3)c(C)c2)c(=O)o1", "note": "[CAY10499]", "values": [{"measurement": "Lipolysis induced with selective β3AR agonist CL316,243", "setting": "HSL; in presence of 100 μM CAY10499", "result": "blunted"}, {"measurement": "Difference between BALB and B6 lipolysis (Δ+CAY), FFA release", "setting": "HSL; inguinal fat pad explants of BALB/c vs B6 ob/ob with CAY10499 (i.e. ATGL activity), P=0.31 versus without inhibitor", "result": "397.1±8.1"}]}
{"smiles": "CC(C)C[C@@H](C=O)NC(=O)[C@H](CC(C)C)NC(=O)[C@H](CC(C)C)NC(=O)OCc1ccccc1", "note": "[MG-132] (Cbz-Leu-Leu-Leu-aldehyde)", "values": [{"measurement": "ATGL concentrations on co-treatment with cycloheximide", "setting": "ATGL", "result": "ATGL concentrations persisted"}]}
{"smiles": "CCN(CC)CCCC(C)Nc1ccnc2cc(Cl)ccc12", "note": "(stereo not drawn) [chloroquine]", "values": [{"measurement": "ATGL concentrations on co-treatment with cycloheximide", "setting": "ATGL", "result": "ATGL concentrations persisted"}]}
{"smiles": "C[C@@H]1C[C@@H]([C@H](O)CC2CC(=O)NC(=O)C2)C(=O)[C@@H](C)C1", "note": "[cycloheximide]", "values": [{"measurement": "ATGL concentrations after cycloheximide treatment", "setting": "ATGL; fat fragments from B6 ob/ob mice, incubated 5 hours", "result": "dramatic reduction in ATGL concentrations"}, {"measurement": "ATGL amounts after cycloheximide treatment", "setting": "ATGL; fat fragments from BALB/c ob/ob mice, incubated 5 hours", "result": "no alteration in ATGL amounts"}]}
